{"source": "paper PMC8370248", "about": "“Key Metabolic Enzymes Involved in Remdesivir Activation in Human Lung Cells” (Antimicrobial Agents and Chemotherapy, 2021)", "key": {"CatA": {"target": "T1, CatA (Homo sapiens, UniProt P10619)", "T1 sequence (P10619 29-326 limits assumed)": "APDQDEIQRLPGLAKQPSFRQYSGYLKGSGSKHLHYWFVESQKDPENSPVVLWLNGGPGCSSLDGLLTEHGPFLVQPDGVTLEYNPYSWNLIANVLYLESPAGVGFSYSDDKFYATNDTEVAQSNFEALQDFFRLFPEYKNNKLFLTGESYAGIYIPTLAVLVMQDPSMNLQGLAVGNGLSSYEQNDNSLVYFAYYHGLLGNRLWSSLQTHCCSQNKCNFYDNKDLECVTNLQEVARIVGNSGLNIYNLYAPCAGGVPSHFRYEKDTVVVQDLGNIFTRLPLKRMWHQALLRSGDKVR", "T1 sequence (P10619 327-480 limits assumed)": "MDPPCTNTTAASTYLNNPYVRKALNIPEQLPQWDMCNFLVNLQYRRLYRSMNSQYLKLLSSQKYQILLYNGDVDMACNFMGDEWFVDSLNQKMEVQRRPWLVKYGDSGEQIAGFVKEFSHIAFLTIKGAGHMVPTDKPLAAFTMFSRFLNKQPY", "experiment": "CatA-catalyzed hydrolysis of RDV and control (substrate disappearance, LC-MS)", "description": "The catalytic activity of carboxylesterase 1b (CES1b), carboxylesterase 1c (CES1c), CES2, and CatA toward RDV hydrolysis was measured using protein-enriched subcellular fraction (CES isozymes) or recombinant proteins (CatA). The reaction rates were determined by monitoring the disappearance of RDV using a liquid chromatography-mass spectrometry (LC-MS) method.\nFollowing protein precipitation and centrifugation, 150 μl of supernatant was dried down and reconstituted with 250 μl water. […] Three experiments were conducted with two replicates in each experiment, and data are reported as averages from the three experiments.\nIn all studies apart from those with CES1 and CatA with enzyme inhibitors, samples (10-μl aliquots) were injected with a Thermo Scientific autosampler. The LC instrumentation consisted of a Thermo Scientific Dionex UltiMate 3000 RS pump, and the LC column was a Waters Acquity UPLC BEH C18 (1.7 μm particle size, 2.1 by 50 mm). Mobile phases A and B were water 99.9% (vol/vol) containing 0.1% (vol/vol) formic acid, and acetonitrile 99.9% (vol/vol) containing 0.1% (vol/vol) formic acid, respectively, pumped at 0.2 ml/minute. Elution was achieved by a series of linear gradients over 2.33 min followed by reequilibration for 2.57 min. The MS instrument was a Thermo Q Exactive Hybrid Quadrupole-Orbitrap operating in positive or negative ionization mode as appropriate. This was calibrated on a weekly basis, and data were processed with GMSU 8.4.66 software by Gubbs Inc. (Alpharetta, GA). Mass tolerance of 5 ppm was used."}, "SARS-CoV-2": {"system": "SARS-CoV-2", "experiment": "microbe, parasite or virus in culture", "type": "cell-based"}}, "note": "Where “and” joins values, the source holds several entries; their conditions need not be identical. Identical values can stand only once."}
{"smiles": "CCC(CC)COC(=O)[C@H](C)N[P@](=O)(OC[C@H]1O[C@@](C#N)(c2ccc3c(N)ncnn23)[C@H](O)[C@@H]1O)Oc1ccccc1", "note": "[RDV, Remdesivir]", "values": [{"measurement": "Activity for amidate ester cleavage, CatA", "setting": "CatA; 1 μM substrate, 5 nM CatA, pH 6.5, 37°C", "result": "74 ± 32", "unit": "nmol/min/mg"}, {"measurement": "CatA hydrolysis rate relative to TAF", "setting": "CatA; fold lower than hydrolysis rate of TAF", "result": 3.4, "unit": "fold"}, {"measurement": "half-life at 1 μM", "setting": "CatA; human, recombinant CatA (activated with CatL), pH 6.5", "result": 43, "unit": "min"}, {"measurement": "Fold-RDV EC50, RDV + 0.5 μM telaprevir", "setting": "SARS-CoV-2; EC50 of combination divided by EC50 of RDV (plus DMSO), 0.5 μM telaprevir", "result": "1.70 ± 0.19"}, {"measurement": "Fold-RDV EC50, RDV + 2.5 μM telaprevir", "setting": "SARS-CoV-2; EC50 of combination divided by EC50 of RDV (plus DMSO), 2.5 μM telaprevir", "result": "2.27 ± 0.25"}, {"measurement": "Fold-RDV EC50, RDV + 10 μM telaprevir", "setting": "SARS-CoV-2; EC50 of combination divided by EC50 of RDV (plus DMSO), 10 μM telaprevir", "result": "2.9 and 2.91 ± 0.65"}, {"measurement": "EC50", "setting": "SARS-CoV-2; Severe acute respiratory syndrome coronavirus 2, 48 h, compound alone (plus DMSO), A549-hACE2 cells, 48 h", "result": "~0.099", "unit": "µM"}]}
